Literature values as cited in patent US7691423B2, “Method of treating inflammation disorders using extracts of passion fruit” (priority 2005, dated 2010).

Experiments:
[1] = tested on: vascular contraction
[2] = tested on: spontaneously hypertensive rat (SHR) cells; conditions: SHR cells in vitro
[3] = tested on: iNOS

Structure (SMILES)	Large dose acetylcholine-induced vascular contraction [1]	NOLA-dependent spontaneous aortic ring contraction [2]	iNOS mRNA and the production of nitric oxide [3]
O=c1ccc2cc(O)c(O)cc2o1 [esculetin]	inhibited	–	–
O=c1c(O)c(-c2ccc(O)cc2)oc2cc(O)cc(O)c12 [kaempferol]	inhibited	inhibit	–
O=c1c(O)c(-c2ccc(O)c(O)c2)oc2cc(O)cc(O)c12 [quercetin]	inhibited	inhibit	inhibit
